For one data set, the system named is Tadpoles. As to the kind of experiment: Tadpole anesthesia test (movement suppressed on contact with rod). The data set is classed as in vivo. As for the experimental part:
Tadpoles were placed in a petri dish containing aquarium water. Four to eight tadpoles were placed in each petri dish. The aquarium water contained the specified test compound at the listed concentration. When the tadpoles stopped moving, a plastic rod was used to elicit motion once again by contact between the rod and tadpole. […] From this and the number of subjects, the percent of tadpoles in which movement was suppressed were calculated.
After 1 to 30 minutes, they were again contacted with a rod to ensure the anesthetic effect had worn off.
In some examples, subanesthetic concentrations of ethanol were added into the aquarium water. Tadpoles in which movement was prevented with exposure to a test compound and ethanol but not with exposure to a test compound alone were classified as partial anesthetics.

For a further data set, the system named is mouse. Particulars: for Effect on the animals: 62.5 mM solution in intralipid; for Effect on the animals / Lethality to the animals: intravenous. The procedure: Butyric acid was dissolved in water to form an 8 M solution. 0.5 mL of the 8 M solution of butyric acid was injected subcutaneously (at the back of the neck) into the mouse.
3-hydroxybutyric acid was dissolved in water to form 1 M, 1.5 M, and 2 M solutions. 0.2 mL of a 1.5 M solution of 3-hydroxybutyric acid was injected into a tail vein of a CD-1 mouse. […] This was repeated for at least 2 more times on subsequent days.
Ethylmalonic acid was dissolved in water to form 2 M, 3 M, and 4 M solutions. 0.2 mL of a 3 M solution of ethylmalonic acid was injected into a tail vein of a mouse. […] This was repeated for at least 2 more times on subsequent days.
Ethylmalonic acid was dissolved in water to form a 4 M solution. 0.5 mL of the 4 M solution of ethylmalonic acid was injected subcutaneously into the mouse.

Setting [1] is: read-out: Movement suppressed (%).
Setting [2] is: Concentration 62.5 mM in aquarium water.

Where two headings read alike, the source gives them in different places.

Consider 42 compounds from US20200375958A1, “MEMBRANE ACTIVE MOLECULES” (priority 2017, published 2020).

As for `CCC(O)C(=O)O` (centres unmarked) [2-Hydroxybutyric acid, 2-hydroxybutyric acid], in the data set on Tadpoles (setting [1]), the responders at 125000 µM was found to be 0%.
Take `CC(C)(C)CC(=O)O` [3,3-Dimethylbutyric acid, 3,3-Dimethylbutanoicacid]: the responders at 25000 µM in the data set with Tadpoles (setting [1]) was 100%.
On to `CC(C)(O)CC(=O)O` [3-Hydroxy-3-methylbutyric acid, 3-Hydroxy-3-methylbutanoic acid], for which, in the data set on Tadpoles (setting [1]), the responders at 1600 µM was determined as 0%, the responders at 6250 µM was determined as 0%, the responders at 25000 µM stood at 0% and the responders at 100000 µM turned out to be 100%.
Take `CCC(C)C(=O)C(=O)O` (centres unmarked) [3-Methyl-2-oxovaleric acid, 3-Methyl-2-oxopentanoic acid]: the responders at 250000 µM in the data set with Tadpoles (setting [1]) amounted to 33%.
Regarding `Cc1cccc(C(=O)NCC(=O)O)c1` [3-Methylhippuric acid, (3-Methylbenzoyl)glycine], the responders at 3125 µM with Tadpoles (setting [1]) worked out at 0%.
In the case of `CCC(C)CC(=O)O` (centres unmarked) [3-Methylvaleric acid, 3-Methylpentanoic acid], the responders at 20000 µM in the data set on Tadpoles (setting [1]) was 25%.
As for `CC(=O)CCCC(=O)O` [4-Acetylbutyric acid, 5-Oxohexanoic acid], the responders at 25000 µM in the data set on Tadpoles (setting [1]) turned out to be 0%.
As to `Cc1ccc(C(=O)NCC(=O)O)cc1` [4-Methylhippuric acid, (4-Methylbenzoyl)glycine], in the data set on Tadpoles (setting [1]), the responders at 50000 µM is 0% and the responders at 150000 µM worked out at 0%.
In the case of `CC(C)CCC(=O)O` [4-Methylvaleric acid], in the data set on Tadpoles (setting [1]), the responders at 20000 µM amounted to 0%.
With `O=C(O)CCCCC(=O)O` [Adipic acid, Hexanedioic acid], the responders at 50000 µM in the data set on Tadpoles (setting [1]) worked out at 0%.
`O=C(NC(O)C(=O)O)c1ccccc1` (stereo not drawn) [Alpha-Hydroxyhippuric acid, 2-Benzamido-2-hydroxyacetic acid]: in the data set with Tadpoles (setting [1]), the responders at 5000 µM worked out at 33% and the responders at 10000 µM was 100%.
Take `N=C(N)NCCC[C@H](N)C(=O)O` [Arginine]: the responders at 46500 µM in the data set on Tadpoles (setting [1]) was 0%.
Take `CC(C)(C(=O)O)C(=O)O` [Dimethylmalonic acid]: in the data set with Tadpoles (setting [1]), the responders at 125000 µM worked out at 60% and the responders at 250000 µM was 60%.
Take `CCO` [Ethanol control, Ethanol, reference compound]: in the data set with Tadpoles (setting [1]), the responders at 100000 µM was found to be 0%, the responders at 150000 µM was 0%, the responders at 200000 µM came out at 0% and the responders at 250000 µM was 33%.
Consider `CCC(C(=O)O)C(=O)O` [Ethyl Malonic Acid, 2-Ethylmalonic acid], for which, in the data set with Tadpoles (setting [1]), the responders at 16000 µM is 0%, the responders at 62500 µM turned out to be 0%, the responders at 125000 µM turned out to be 100% and the responders at 250000 µM is 100%. Also, the “Anesthetic effect on the mouse” value with mouse (0.2 mL of 3 M solution in water, tail vein) is recorded as “became unconscious”. Further, in the data set with mouse (0.5 mL of 4 M solution in water, subcutaneous), the “Anesthetic effect on the mouse” value is on record as “became sedated, anesthetized, or lose consciousness”. Besides, in the data set on mouse (2 M solution in water, tail vein), the “Anesthetic effect on the mouse” value is “did not have any observable effect”. The “Lethality to the mouse” value with mouse (4 M solution in water, tail vein) is recorded as “lethal”.
With `NC(=O)CC[C@H](N)C(=O)O` [Glutamine], in the data set with Tadpoles (setting [1]), the responders at 25000 µM is 0%, the responders at 50000 µM was determined as 100% and the responders at 100000 µM was found to be 100%.
For the compound `O=C(O)CCCC(=O)O` [Glutaric acid], in the data set with Tadpoles (setting [1]), the responders at 7800 µM turned out to be 0%, the responders at 31000 µM came to 0% and the responders at 125000 µM was determined as 0%.
Take `O=C(O)Cc1c[nH]c2ccccc12` [Indole-3-acetic acid, 2-(1H-indol-3-yl)acetic acid]: the responders at 12500 µM in the data set on Tadpoles (setting [1]) came out at 0%.
For the compound `CC[C@H](C)[C@H](N)C(=O)O` [Isoleucine], in the data set on Tadpoles (setting [1]), the responders at 25000 µM was 0%.
On to `CC(C)C(C(=O)O)C(=O)O` [Isopropyl malonic acid, 2-isopropylmalonic acid], for which, in the data set with Tadpoles (setting [1]), the responders at 1600 µM was 0%, the responders at 6250 µM came to 0% and the responders at 25000 µM stood at 50%.
Turning to `O=C(O)c1cc(O)c2ccccc2n1` [Kynurenic acid, 4-hydroxyquinoline-2-carboxylic acid], the responders at 12500 µM in the data set on Tadpoles (setting [1]) worked out at 0%.
In the case of `NC(=O)C[C@H](N)C(=O)O` [L-Asparagine, Asparagine], the responders at 100000 µM in the data set on Tadpoles (setting [1]) amounted to 0%.
As for `N[C@@H](CO)C(=O)O` [L-Serine, Serine], the responders at 114000 µM with Tadpoles (setting [1]) stood at 0%.
As to `CC(C)[C@H](N)C(=O)O` [L-valine, Valine], in the data set with Tadpoles (setting [1]), the responders at 7800 µM turned out to be 0%, the responders at 31000 µM was determined as 0%, the responders at 125000 µM amounted to 0% and the responders at 500000 µM came out at 40%.
As for `O=C(O)C(O)c1ccccc1` (centres unmarked) [Mandelic acid, 2-Hydroxy-2-phenylacetic acid], in the data set with Tadpoles (setting [1]), the responders at 250000 µM amounted to 0%, the responders at 300000 µM stood at 100% and the responders at 500000 µM was found to be 100%.
For the compound `O=C(O)C(=O)Cc1ccccc1` [Phenylpyruvic acid, 2-Oxo-3-phenylpropanoic acid], in the data set with Tadpoles (setting [1]), the responders at 62500 µM was 100% and the responders at 125000 µM was found to be 100%.
For `O=C(O)[C@@H]1CCCN1` [Proline], the responders at 103000 µM in the data set with Tadpoles (setting [1]) came to 0%.
As for `O=C(O)c1ccc2ccccc2n1` [Quinaldic acid, Quinoline-2-carboxylic acid], in the data set with Tadpoles (setting [1]), the responders at 25000 µM stood at 16%.
Turning to `C[C@@H](O)CC(=O)O` [R-3-hydroxybutyric acid, (R)-3 -Hydroxybutanoic acid], in the data set with Tadpoles (setting [1]), the responders at 100000 µM is 0%, the responders at 200000 µM turned out to be 0%, the responders at 250000 µM stood at 0% and the responders at 300000 µM came out at 0%. Besides, in the data set on Tadpoles (setting [1]), the responders at 350000 µM is 0%, the responders at 400000 µM was 46% and the responders at 500000 µM worked out at 100%.
As for `C[C@H](O)CC(=O)O` [S-3-hydroxybutyric acid, (S)-3-Hydroxybutanoic acid], in the data set with Tadpoles (setting [1]), the responders at 100000 µM worked out at 0%, the responders at 200000 µM worked out at 0%, the responders at 250000 µM came out at 14% and the responders at 300000 µM was 17%. In the data set on Tadpoles (setting [1]), the responders at 350000 µM turned out to be 50%, the responders at 400000 µM came to 92% and the responders at 500000 µM is 100%.
For `O=C(O)CCCCCCC(=O)O` [Suberic acid, Octanedioic acid], the responders at 10000 µM in the data set with Tadpoles (setting [1]) was found to be 50%.
`N[C@@H](Cc1c[nH]c2ccccc12)C(=O)O` [Tryptophan]: the responders at 12500 µM in the data set with Tadpoles (setting [1]) was determined as 0%.
Turning to `CCOC(=O)C(CC)C(=O)OCC` [diethyl ethyl malonate, Diethyl ethyl malonate], the “Effect on the animals” value in the data set with mouse is “lethargic and those loss coordination”.
As to `CCOC(=O)C(CC)(C(=O)OCC)c1ccccc1` [diethyl ethylphenylmalonate], in the data set on mouse, the “Effect on the animals” value was “lethargic and those loss coordination”. The “Lethality to the animals” value in the data set on mouse (250 mM solution in intralipid) and with mouse (1M solution in intralipid) was “lethal” each time.
On to `CCOC(=O)[C@@H](O)c1ccccc1` [ethyl (S)-(+)-mandelate], for which, in the data set on mouse, the “Effect on the animals” value is “lethargic and those loss coordination”. In addition, the “Lethality to the animals” value in the data set with mouse (250 mM solution in intralipid) and in the data set on mouse (1M solution in intralipid) was “lethal” each time.
With `CCCC(=O)OCC` [ethyl butyrate], the “Effect on the animals” value with mouse is “lethargic and those loss coordination”. Besides, the “Lethality to the animals” value in the data set on mouse (250 mM solution in intralipid) and in the data set with mouse (1M solution in intralipid) was “lethal” throughout.
Take Fumaric acid: the results for the “Movement suppressed (%)” value in the data set on Tadpoles (Concentration 25 mM in aquarium water) and in the data set on Tadpoles (Concentration (mM) 25 + 150 EtOH) were 40% and 80%, respectively.
Take Glycine: the “Movement suppressed (%)” value in the data set with Tadpoles (Concentration (mM) 250 + 150 EtOH) turned out to be 100%.
Turning to Guanidine, the figures for the “Movement suppressed (%)” value in the data set with Tadpoles (setting [2]) and with Tadpoles (Concentration (mM) 62.5 + 150 EtOH) were 0% and 100%, respectively.
For the compound Succinic acid, the figures for the “Movement suppressed (%)” value in the data set on Tadpoles (setting [2]) and in the data set on Tadpoles (Concentration (mM) 62.5 + 200 EtOH) were 0% and 66%, respectively.
Turning to Tartaric acid [L-Tartaric acid], the “Movement suppressed (%)” value with Tadpoles (Concentration 50 mM in aquarium water) was found to be 0%; with Tadpoles (Concentration (mM) 50 + 150 EtOH), 100%.
ethyl isovaleric acid: in the data set on mouse, the “Effect on the animals” value was “lethargic and those loss coordination”.
